These results are taken from patent US20260224688A1, “HELPER LIPIDS FOR NUCLEIC ACID DELIVERY” (SANOFI PASTEUR INC., priority 2023, published 2026).

The nature of data set [1]: Dynamic light scattering of lipid nanoparticles (size, PDI). In kind it is physicochemical. Here is the method:
(§1) Lipid nanoparticle formulations 3 were prepared by Process A at a molar ratio of 40:1.5:30:28.5 (Cationic Lipid: DMG-PEG2000: Cholesterol: Helper Lipid) with the cationic lipids and helper lipids disclosed in the tables below. The Polydispersity Index (Pdl) of lipid nanoparticles can be determined by diluting the formulation in 10% trehalose at about 0.1 mg/ml mRNA concentration and then measuring the size on Malvern zetasizer. The lipid nanoparticle size can be obtained with Malvern Zetasizer Nano-ZS.
Dynamic light scattering (DLS) measurements were performed using a Malvern Instruments Zetasizer with a backscattering detector angle of 173° and a 4-mW, 633-nm He—Ne laser (Worcestershire, UK). The samples were analyzed by diluting in 10% Trehalose and measuring the size and Poly dispersity Index (PDI) in an optical grade polystyrene cuvette.

Data set [2] can be described thus: mRNA encapsulation efficiency of lipid nanoparticles. Type of data set: physicochemical. Conditions: for Encapsulation efficiency (EE): LNP with cationic lipid CL-A.
Text: In embodiments, the lipid nanoparticle encapsulates a nucleic acid, optionally an mRNA encoding a peptide or protein. In embodiments, the lipid nanoparticle encapsulates an mRNA encoding a peptide or protein, optionally for use in a vaccine. In embodiments, the peptide is an antigen. As used herein, the phrase “encapsulation percentage” refers to the fraction of therapeutic agent (e.g. mRNA) that is effectively encapsulated within a liposomal-based vehicle (e.g. a lipid nanoparticle) relative to the initial fraction of therapeutic agent present in the lipid phase. In embodiments, the lipid nanoparticles have an encapsulation percentage for mRNA of at least 50%. In embodiments, the lipid nanoparticles have an encapsulation percentage for mRNA of at least 55%. In embodiments, the lipid nanoparticles have an encapsulation percentage for mRNA of at least 60%. In embodiments, the lipid nanoparticles have an encapsulation percentage for mRNA of at least 65%. In embodiments, the lipid nanoparticles have an encapsulation percentage for mRNA of at least 70%. In embodiments, the lipid nanoparticles have an encapsulation percentage for mRNA of at least 75%. In embodiments, the lipid nanoparticles have an encapsulation percentage for mRNA of at least 80%. In embodiments, the lipid nanoparticles have an encapsulation percentage for mRNA of at least 85%. In embodiments, the lipid nanoparticles have an encapsulation percentage for mRNA of at least 90%. In embodiments, the lipid nanoparticles have an encapsulation percentage for mRNA of at least 95%. In embodiments, the encapsulation percentage is calculated by performing the Ribogreen assay (Invitrogen) with and without the presence of 0.1% Triton-X 100.
The lipid nanoparticles in the examples of the present invention were formulated using Process A of WO 2018/089801 (see, e.g., Example 1 and FIG. 1 of WO 2018/089801). Process A (“A”) relates to a conventional method of encapsulating mRNA by mixing mRNA with a mixture of lipids, without first pre-forming the lipids into lipid nanoparticles. In an exemplary process, an ethanolic solution of a mixture of lipids (cationic lipid, phosphatidylethanolamine, cholesterol, and polyethylene glycol-lipid) at a fixed lipid to mRNA ratio were combined with an aqueous buffered solution of target mRNA at an acidic pH under controlled conditions to yield a suspension of uniform LNPs. After ultrafiltration and diafiltration into a suitable diluent system, the resulting nanoparticle suspensions were diluted to final concentration, filtered, and stored frozen at −80° C. until use.
as §1

Data set [3] relates to hEPO. The data set can be described thus: IM EPO expression of LNPs containing new helper lipids (hEPO in serum by ELISA). Conditions: for 6-h EPO: single IM injection; for Normalized Mean EPO expression: helper lipid CL-C formulations, IM, DOPE = 1. Type of data set: in vivo, female BALB/cJ mice. Here is the method:
Lipid nanoparticles were formulated containing the four lipid components shown below at a ratio of 40:30:28.5:1.5, complexed with a hEPO messenger RNA. • Cationic lipid, 40 mol % • Phospholipid (PEA) helper lipid, 30 mol % • Cholesterol, 28.5 mol % • DMG-PEG-2K (1,2-dimyristoyl-rac-glycero-3-methoxypolyethyleneglycol), 1.5 mol % The cationic lipid component of each formulation was selected from the compounds in the table below: […]
EPO expression studies were conducted with female BALB/cJ mice 6-8 weeks of age. Mice were dosed with […] EPO mRNA in 30 μL of LNPs by a single intramuscular (IM) injection into the gastrocnemius leg muscle. Blood samples were taken 6 and 24 hours post injection and hEPO levels were measured in the blood serum of the mice using an ELISA assay according to the manufacture's protocol. WO2022/099003 A1 also describes an in vivo assay for intramuscular administration (e.g. on page 46, paragraph [00206]).

The test system of data set [4] is hEPO. The data set can be described thus: IV EPO expression of LNPs (tail vein injection). In kind it is in vivo, female BALB/cJ mice. Conditions: cationic lipid CL-0137, helper lipid 30 mol %; 0.017 μg EPO mRNA tail vein; 6 hours; DOPE = 1. Here is the method:
Lipid nanoparticles were formulated containing the four lipid components shown below at a ratio of 40:30:28.5:1.5, complexed with a hEPO messenger RNA. • Cationic lipid CL-0137, 40 mol % • Helper lipid, 30 mol % • Cholesterol, 28.5 mol % • DMG-PEG-2K (1,2-dimyristoyl-rac-glycero-3-methoxypolyethyleneglycol), 1.5 mol %
EPO expression studies were conducted with female BALB/cJ mice 6-8 weeks of age. Mice were dosed with 0.017 μg EPO mRNA LNPs in a volume of 5 ul by a single tail vein injection. Blood samples were taken 6 hours post injection and hEPO levels were measured in the blood serum of the mice using an ELISA assay according to the manufacture's protocol.

Where [5] appears, read: LNP with cationic lipid CL-A, hEPO mRNA, 40:30:28.5:1.5.
[6] abbreviates: CL-A LNP, 0.1 μg EPO mRNA in 30 μL, serum 6 hours post injection.
[7] abbreviates: CL-B LNP, serum 6 hours post injection.

For `CCCCCCCCC(CCCCCCCC)OC(=O)CCCCCCC(=O)OC[C@H](COP(=O)(O)OCCN(C)C)OC(=O)CCCCCCC(=O)OC(CCCCCCCC)CCCCCCCC` [Compound 14], the “Polydispersity Index (PDI)” value in data set [1] (LNP with cationic lipid CL-A) worked out at 0.068. In addition, the figures for the Size in data set [1] (setting [5]), in data set [1] (LNP with cationic lipid CL-B) and in data set [1] (LNP with cationic lipid CL-C) were 148 nm, 137.0 nm and 101.4 nm, respectively. Further, the PDI is 0.067 in data set [1] (LNP with cationic lipid CL-B) and 0.141 in data set [1] (LNP with cationic lipid CL-C). Moreover, the “Encapsulation efficiency (EE)” value in data set [2] is on record as 96%. Also, the results for the EE in data set [2] (LNP with cationic lipid CL-B) and in data set [2] (LNP with cationic lipid CL-C) were 92% and 91%, respectively. For the same molecule, the “6-h EPO” value is 0 ng/mL in the data set with hEPO [3] (setting [6]); 35.4 ng/mL in the data set on hEPO [3] (setting [7]); 34.6 ng/mL in the data set with hEPO [3] (CL-C LNP, (6-h)). The “Normalized Mean IV EPO expression” value in the data set with hEPO [4] amounted to 0.95.

For the molecule `CC(C)CCCCOC(=O)CCCCCCC(=O)OCC(COP(=O)(O)OCCN)OC(=O)CCCCCCC(=O)OCCCCC(C)C` (centres unmarked) [Compound 2, O′^1,O^1-(3-(((2-Aminoethoxy)(hydroxy)phosphoryl)oxy)-propane-1,2-diyl) 8-bis(5-methylhexyl) di(octanedioate)], the “Polydispersity Index (PDI)” value in data set [1] (LNP with cationic lipid CL-A) was found to be 0.031. The Size is given as 137 nm in data set [1] (setting [5]), 97.0 nm in data set [1] (LNP with cationic lipid CL-B), 88.5 nm in data set [1] (LNP with cationic lipid CL-C) and 114.3 nm in data set [1] (LNP with cationic lipid CL-D). The PDI was found to be 0.124 in data set [1] (LNP with cationic lipid CL-B), 0.102 in data set [1] (LNP with cationic lipid CL-C) and 0.064 in data set [1] (LNP with cationic lipid CL-D). The “Encapsulation efficiency (EE)” value in data set [2] was 69%. The figures for the EE in data set [2] (LNP with cationic lipid CL-B), in data set [2] (LNP with cationic lipid CL-C) and in data set [2] (LNP with cationic lipid CL-D) were 37%, 69% and 78%, respectively.

`CC(C)CCCCOC(=O)CCCCCCC(=O)OCC(COP(=O)(O)OCCN(C)C)OC(=O)CCCCCCC(=O)OCCCCC(C)C` (centres unmarked) [Compound 8, O′^1,O^1-(3-(((2-(Dimethylamino)ethoxy)(hydroxy)phosphoryl)-oxy)propane-1,2-diyl) 8-bis(5-methylhexyl) di(octanedioate)]: in data set [1] (LNP with cationic lipid CL-A), the “Polydispersity Index (PDI)” value turned out to be 0.06. For the same molecule, the Size is 116 nm in data set [1] (setting [5]), 92.3 nm in data set [1] (LNP with cationic lipid CL-B), 91.1 nm in data set [1] (LNP with cationic lipid CL-C) and 151.4 nm in data set [1] (LNP with cationic lipid CL-D). Also, the PDI is reported as 0.146 in data set [1] (LNP with cationic lipid CL-B), 0.102 in data set [1] (LNP with cationic lipid CL-C) and 0.061 in data set [1] (LNP with cationic lipid CL-D). Moreover, in data set [2], the “Encapsulation efficiency (EE)” value is on record as 89%. In addition, the EE is reported as 18% in data set [2] (LNP with cationic lipid CL-B), 87% in data set [2] (LNP with cationic lipid CL-C) and 28% in data set [2] (LNP with cationic lipid CL-D). For the same molecule, the “6-h EPO” value amounted to 0.5 ng/mL with hEPO [3] (CL-C LNP) and 1.4 ng/mL in the data set with hEPO [3] (CL-C LNP, (6-h)). Also, the “Normalized Mean IV EPO expression” value in the data set with hEPO [4] is reported as 0.29.

On to `CCCCCCCCC(CCCCCCCC)OC(=O)CCCCCCC(=O)OCC(COP(=O)(O)OCCN(C)CCO)OC(=O)CCCCCCC(=O)OC(CCCCCCCC)CCCCCCCC` (centres unmarked) [Compound 25], for which the “Polydispersity Index (PDI)” value in data set [1] (LNP with cationic lipid CL-A) is given as 0.121. The Size was 137 nm in data set [1] (setting [5]), 120.1 nm in data set [1] (LNP with cationic lipid CL-B) and 92.2 nm in data set [1] (LNP with cationic lipid CL-C). Besides, the PDI in data set [1] (LNP with cationic lipid CL-B) is 0.151; in data set [1] (LNP with cationic lipid CL-C), 0.142. For the same molecule, the “Encapsulation efficiency (EE)” value in data set [2] is reported as 93%. The EE in data set [2] (LNP with cationic lipid CL-B) is 95%; in data set [2] (LNP with cationic lipid CL-C), 93%. Besides, the “6-h EPO” value stood at 16.5 ng/mL in the data set on hEPO [3] (setting [6]); 44.5 ng/mL in the data set with hEPO [3] (setting [7]); 56.5 ng/mL in the data set on hEPO [3] (CL-C LNP, (6-h)). In the data set on hEPO [4], the “Normalized Mean IV EPO expression” value amounted to 1.24.

In the case of `CCCCCCCCC(CCCCCCCC)OC(=O)CCCCCCC(=O)OC[C@@H](COP(=O)(O)OCCN(C)CCCO)OC(=O)CCCCCCC(=O)OC(CCCCCCCC)CCCCCCCC` [Compound 28, 8-Di(heptadecan-9-yl) O′1,O1-((2S)-3-((hydroxy(2-((3-hydroxypropyl)(methyl)amino)ethoxy)phosphoryl)oxy)propane-1,2-diyl) di(octanedioate)], the “Normalized Mean EPO expression” value with hEPO [3] is reported as 1.77.

Take `CCCCCCCCC(CCCCCCCC)OC(=O)CCCCCCC(=O)OC[C@@H](COP(=O)(O)OCCCCCN(C)C)OC(=O)CCCCCCC(=O)OC(CCCCCCCC)CCCCCCCC` [Compound 65, O′^1,O^1-((2S)-3-((((5-(Dimethylamino)pentyl)oxy)(hydroxy)phosphoryl)-oxy)propane-1,2-diyl) 8-di(heptadecan-9-yl) di(octanedioate)]: the “Normalized Mean EPO expression” value with hEPO [3] stood at 0.825. In the data set with hEPO [4], the “Normalized Mean IV EPO expression” value turned out to be 2.14.

On to `CCCCCCCCC(CCCCCCCC)OC(=O)CCCCCCC(=O)OCC(COP(=O)(O)OCCCN(C)C)OC(=O)CCCCCCC(=O)OC(CCCCCCCC)CCCCCCCC` (centres unmarked) [Compound 60], for which the “Normalized Mean EPO expression” value in the data set with hEPO [3] worked out at 1.39. Moreover, the “Normalized Mean IV EPO expression” value in the data set with hEPO [4] is 4.61.

Take `CCCCCCCCC(CCCCCCCC)OC(=O)CCCCCCC(=O)OCC(COP(=O)(O)OCCN(C)CCCO)OC(=O)CCCCCCC(=O)OC(CCCCCCCC)CCCCCCCC` (centres unmarked) [Compound 27]: in data set [1] (LNP with cationic lipid CL-A), the “Polydispersity Index (PDI)” value turned out to be 0.059. Besides, the Size in data set [1] (setting [5]) was 153 nm; in data set [1] (LNP with cationic lipid CL-B) it was 123.9 nm; in data set [1] (LNP with cationic lipid CL-C) it was 97.0 nm. Moreover, the values for the PDI in data set [1] (LNP with cationic lipid CL-B) and in data set [1] (LNP with cationic lipid CL-C) were 0.108 and 0.129, respectively. In data set [2], the “Encapsulation efficiency (EE)” value is listed as 94%. In addition, the values for the EE in data set [2] (LNP with cationic lipid CL-B) and in data set [2] (LNP with cationic lipid CL-C) were 98% and 97%, respectively. For the same molecule, the “6-h EPO” value came out at 25.6 ng/mL with hEPO [3] (setting [6]); 53 ng/mL in the data set with hEPO [3] (setting [7]); 46.9 ng/mL in the data set with hEPO [3] (CL-C LNP, (6-h)).

In the case of `CCCCCCCCC(CCCCCCCC)OC(=O)CCCCCCC(=O)OC[C@@H](COP(=O)(O)OCC[N+](C)(C)CCCO)OC(=O)CCCCCCC(=O)OC(CCCCCCCC)CCCCCCCC` [Compound 38, (S)-2,3-Bis((8-(heptadecan-9-yloxy)-8-oxooctanoyl)oxy)propyl (2-((3-hydroxypropyl)dimethylammonio)ethyl) phosphate], the “Normalized Mean IV EPO expression” value in the data set on hEPO [4] is 0.8.
